The text below walks through data of US9303009B2, “Migrastatins and uses thereof” (Sloan-Kettering Institute for Cancer Research, priority 2011, dated 2016).

Series [1] has as its system CAG multiple myeloma cells. Kind of series: multiple myeloma transwell migration towards SDF-1α. The note with it: pretreatment 8 h, transmigration 6 h. In kind it is cell-based. Here is the method:
(§1) Multiple myeloma cell chemotaxis was performed towards a SDF-1α in a modified Boyden chamber consisting of a cell culture insert (4.26 mm diameter, 8-μm pore polyester membrane) seated in each well of a 96-well plate (HTS Transwell-96 System, Corning). Briefly, multiple myeloma cells were grown as subconfluent cultures then starved for 24 hours in serum-free IMDM medium. Single-cell suspensions were prepared by mechanical dissociation, then the cells were counted and a total of 5.10^4 cells suspended in serum-free IMDM medium were seeded into the upper chamber, then positioned in a 96-well plate, containing medium with or without SDF-1α (at 200 ng/mL). […] Migrastatin analogs or DMSO (vehicle) were added to the medium at 0.5% in both chambers. Migration assays were carried out for 6 hours in a humidified incubator at 37° C. with 5% CO2. At the assay endpoint, the inserts were removed and the migrating cells were counted in the well. The migration in response to the test condition was calculated relative to the DMSO vehicle control.

Series [2] has as its system H929 multiple myeloma cells. The series is described as above. It counts as cell-based. The settings on record: pretreatment 8 h, transmigration 6 h. Here is the method: as §1
The test system of series [3] is human tumor cell lines of multiple myeloma and lung cancer. Kind of series: toxicity by alamarBlue, whole panel. In kind it is cell-based. Here is the method: (§2) The toxicity of compounds 42-45 and their IC50 was determined on a panel of human tumor cell lines of multiple myeloma (RPMI8226, MM1S, MM1R, ARP-GL, CAG-GL, OPM2-GL, SKO-007-GL, U266-GL,) and lung cancer (H299-GL, H522-GL, H647-GL, A549-GL, A549-GL, HI993, H1075-GL, HI373, H17030) origin. Tumor cells were dissociated into a single-cell suspension by Trypsin/Collagenase IV treatment and 500 cells per well were aliquoted into each well of 384 microwell plates in 50 μl of RPMI medium with 10% FCS. Compounds 42-45 were dissolved in DMSO and serially diluted in RPMI medium plus 10% FCS and added (1 mM to 1 nM) to quadruplicate wells containing tumor cells. Dilutions of DMSO without compound were used as a control. After 18 hrs or 2 days, the cultures were pulsed with 6 μl of alamarBlue® (Invitrogen Inc. Grand Island, N.Y.) and incubated overnight. The alamarBlue® provides a cell growth indicator based on detection of metabolic activity. The assay system incorporates an oxidation-reduction indicator that both fluoresces and changes color in response to chemical reduction of growth medium resulting from cell growth. The fluorescence intensity was measured using a Synergy H1 Microplate Reader (Biotek Inc, Winooski, VT) and a dose-response curve established for IC50 determination.

For series [4], the system named is lung cancer (H299-GL, H522-GL, H647-GL, A549-GL, H1993, H1075-GL, H1373-GL H1703 cells). Briefly: toxicity by alamarBlue, lung cancer cell lines. It counts as cell-based. The note with it: mean of 8 cell lines. Here is the method: Dilutions of DMSO without compound were used as a control. After 18 hrs or 2 days, the cultures were pulsed with 6 μl of alamarBlue® (Invitrogen Inc. Grand Island, N.Y.) and incubated overnight. The alamarBlue® provides a cell growth indicator based on detection of metabolic activity. The assay system incorporates an oxidation-reduction indicator that both fluoresces and changes color in response to chemical reduction of growth medium resulting from cell growth. The fluorescence intensity was measured using a Synergy H1 Microplate Reader (Biotek Inc, Winooski, VT) and a dose-response curve established for IC50 determination.

The test system of series [5] is multiple myeloma (RPMI8226, MM1S, ARP-GL, CAG-GL, OPM2-GL, SKO-007-GL, U266-GL, MM1R cells). Briefly: toxicity by alamarBlue, multiple myeloma cell lines. It counts as cell-based, human. The settings on record: mean of 8 cell lines. Here is the method: as §2

Molecules are shown by their SMILES. pIC50: −log10 of the molar value.

Broadly, the pIC50 is −log10 of the IC50, conventionally taken in molar units. With `COC(=O)CO[C@H]1[C@H](C)/C=C(/C)COCCCCC/C=C/[C@@H]1OC` [Compound 42], the “% of migration relative to DMSO control” value worked out at 93.63% in series [1] (5 μM), 0.23% in series [1] (250 μM), 91.03% in series [2] (5 μM) and 7.08% in series [2] (250 μM). Besides, the pIC50 in series [3] was 3.10 to 3.52. The “Estimated lethal doses (LD50)” value was 741.2 µM in series [4] (18 h exposure), 602.7 µM in series [4] (48 h exposure), 515.2 µM in series [5] (18 h exposure) and 476.4 µM in series [5] (48 h exposure).

As for `CO[C@H]1/C=C/CCCCCOC/C(C)=C\[C@@H](C)[C@@H]1OCCO` [Compound 43], the “% of migration relative to DMSO control” value in series [1] (5 μM) came to 82.04%; in series [1] (250 μM) it was 0.71%; in series [2] (5 μM) it was 52.26%; in series [2] (250 μM), 0.98%. Also, in series [3], the pIC50 is 3.10 to 3.52. The “Estimated lethal doses (LD50)” value in series [4] (18 h exposure) is 523.9 µM; in series [4] (48 h exposure), 510.7 µM; in series [5] (18 h exposure), 530.8 µM; in series [5] (48 h exposure) it was 406.1 µM.

Turning to `CNC(=O)CO[C@H]1[C@H](C)/C=C(/C)COCCCCC/C=C/[C@@H]1OC` [Compound 44], the “% of migration relative to DMSO control” value in series [1] (5 μM) amounted to 86.22%; in series [1] (250 μM), 0.05%; in series [2] (5 μM), 81.48%; in series [2] (250 μM) it was 4.06%. Moreover, the negative-log IC50 (pIC50) in series [3] is 3.10 to 3.52. In addition, the “Estimated lethal doses (LD50)” value was 299.7 µM in series [4] (18 h exposure), 316.7 µM in series [4] (48 h exposure), 182.5 µM in series [5] (18 h exposure) and 210.6 µM in series [5] (48 h exposure).

For the compound `CCNC(=O)O[C@H]1[C@H](C)/C=C(/C)COCCCCC/C=C/[C@@H]1OC` [Compound 45], the “% of migration relative to DMSO control” value in series [1] (5 μM) turned out to be 54.48%; in series [1] (250 μM), 0.58%; in series [2] (5 μM), 62.38%; in series [2] (250 μM), 5.51%. In series [3], the pIC50 is 3.10 to 3.52. Also, the “Estimated lethal doses (LD50)” value in series [4] (18 h exposure) is 446.9 µM; in series [4] (48 h exposure) it was 446.8 µM; in series [5] (18 h exposure), 275.6 µM; in series [5] (48 h exposure), 217.3 µM.
